These results are taken from patent US11208412B2 (DAEGU-GYEONGBUK MEDICAL INNOVATION FOUNDATION, priority 2017, dated 2021).

Holding throughout (assay): Kinase selectivity, DiscoverX scanMAX Kinase assay panel (% control)
What all share (type): binding

The target of assay [1] is T1, kinases of the scanMAX Kinase assay panel (Homo sapiens, UniProt O95819).
T1 construct: purchased DiscoverX Co. (contract measurement) scanMAX Kinase assay panel
To be noted: MAP4K4; 1 uM. The gist of the method: (§1)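 Each enzyme is treated with drug at 1 uM in DMSO, then signal is scaled between a positive control (0%) and DMSO (100%) to give % control. Kinases with % control under 35% are scored as inhibited.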

The target of assay [2] is T2, kinases of the scanMAX Kinase assay panel (Homo sapiens, UniProt P36888, K663Q).
T2 construct: purchased DiscoverX Co. (contract measurement) scanMAX Kinase assay panel
T2 sequence (P36888 27-993 K663Q): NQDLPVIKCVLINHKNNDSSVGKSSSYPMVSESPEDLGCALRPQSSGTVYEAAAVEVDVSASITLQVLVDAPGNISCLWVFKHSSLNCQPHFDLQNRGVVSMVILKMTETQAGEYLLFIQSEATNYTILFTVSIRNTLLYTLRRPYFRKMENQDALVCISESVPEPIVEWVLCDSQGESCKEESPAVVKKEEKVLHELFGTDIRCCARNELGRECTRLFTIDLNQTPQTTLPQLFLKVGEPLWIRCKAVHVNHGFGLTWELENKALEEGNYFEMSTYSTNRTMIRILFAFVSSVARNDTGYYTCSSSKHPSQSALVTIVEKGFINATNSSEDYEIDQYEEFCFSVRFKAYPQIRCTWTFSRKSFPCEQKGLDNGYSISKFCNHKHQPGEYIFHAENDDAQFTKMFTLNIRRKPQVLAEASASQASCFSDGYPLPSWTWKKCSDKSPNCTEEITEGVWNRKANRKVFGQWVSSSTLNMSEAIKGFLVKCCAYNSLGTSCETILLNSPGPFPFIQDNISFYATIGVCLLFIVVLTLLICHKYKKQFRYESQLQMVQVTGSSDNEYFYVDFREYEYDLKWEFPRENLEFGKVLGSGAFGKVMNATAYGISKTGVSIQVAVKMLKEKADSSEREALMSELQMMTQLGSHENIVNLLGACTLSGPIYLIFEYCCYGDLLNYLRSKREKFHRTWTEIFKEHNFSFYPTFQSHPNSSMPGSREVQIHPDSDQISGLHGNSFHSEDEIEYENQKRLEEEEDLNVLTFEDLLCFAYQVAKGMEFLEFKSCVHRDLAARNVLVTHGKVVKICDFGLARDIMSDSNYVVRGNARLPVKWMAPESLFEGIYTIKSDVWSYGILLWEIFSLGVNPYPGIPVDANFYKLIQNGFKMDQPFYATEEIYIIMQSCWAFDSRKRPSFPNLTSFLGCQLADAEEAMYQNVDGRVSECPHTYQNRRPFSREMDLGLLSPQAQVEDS
To be noted: FLT3(K663Q); 1 uM. The method, boiled down: as §1

Assay [3] addresses T3, kinases of the scanMAX Kinase assay panel (Homo sapiens, UniProt Q9BXA7).
T3 construct: purchased DiscoverX Co. (contract measurement) scanMAX Kinase assay panel
T3 sequence (Q9BXA7 1-367): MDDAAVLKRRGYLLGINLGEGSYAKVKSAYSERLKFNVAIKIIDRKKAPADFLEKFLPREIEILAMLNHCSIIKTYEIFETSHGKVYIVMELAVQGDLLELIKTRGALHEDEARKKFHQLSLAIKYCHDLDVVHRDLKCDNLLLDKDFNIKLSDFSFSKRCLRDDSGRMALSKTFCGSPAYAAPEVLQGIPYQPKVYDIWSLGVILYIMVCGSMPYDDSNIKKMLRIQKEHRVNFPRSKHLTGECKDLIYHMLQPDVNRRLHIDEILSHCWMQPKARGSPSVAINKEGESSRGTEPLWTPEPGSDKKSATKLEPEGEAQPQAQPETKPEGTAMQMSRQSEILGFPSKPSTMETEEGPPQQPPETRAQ
To be noted: kinase TSSK1B; 1 uM in DMSO. The method, boiled down: as §1

For assay [4], the target named is T4, kinases of the scanMAX Kinase assay panel (Homo sapiens, UniProt Q96SB4).
T4 construct: purchased DiscoverX Co. (contract measurement) scanMAX Kinase assay panel
T4 sequence (Q96SB4 whole entry): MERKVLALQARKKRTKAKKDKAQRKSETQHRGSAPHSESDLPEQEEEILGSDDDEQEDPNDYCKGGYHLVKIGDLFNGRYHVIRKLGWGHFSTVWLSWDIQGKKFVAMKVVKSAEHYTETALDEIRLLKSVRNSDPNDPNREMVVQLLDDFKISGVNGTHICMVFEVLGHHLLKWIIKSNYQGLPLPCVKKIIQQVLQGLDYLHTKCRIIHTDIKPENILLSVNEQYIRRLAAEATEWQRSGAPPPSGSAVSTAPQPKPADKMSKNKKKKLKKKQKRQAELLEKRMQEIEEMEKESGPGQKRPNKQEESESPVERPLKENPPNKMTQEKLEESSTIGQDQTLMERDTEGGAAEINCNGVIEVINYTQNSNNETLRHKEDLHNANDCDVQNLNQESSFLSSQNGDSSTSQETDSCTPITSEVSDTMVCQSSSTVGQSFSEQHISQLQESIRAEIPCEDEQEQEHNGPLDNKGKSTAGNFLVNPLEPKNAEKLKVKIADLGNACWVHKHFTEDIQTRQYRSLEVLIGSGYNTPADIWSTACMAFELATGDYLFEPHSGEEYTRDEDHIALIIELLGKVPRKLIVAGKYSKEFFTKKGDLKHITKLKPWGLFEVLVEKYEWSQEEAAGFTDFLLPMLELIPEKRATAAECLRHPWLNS
The conditions noted are these: kinase SRPK1; 1 uM in DMSO. The gist of the method:
as §1

For assay [5], the target named is T5, kinases of the scanMAX Kinase assay panel (Homo sapiens, UniProt P15056, V600E).
T5 construct: purchased DiscoverX Co. (contract measurement) scanMAX Kinase assay panel
T5 sequence (P15056 whole entry V600E): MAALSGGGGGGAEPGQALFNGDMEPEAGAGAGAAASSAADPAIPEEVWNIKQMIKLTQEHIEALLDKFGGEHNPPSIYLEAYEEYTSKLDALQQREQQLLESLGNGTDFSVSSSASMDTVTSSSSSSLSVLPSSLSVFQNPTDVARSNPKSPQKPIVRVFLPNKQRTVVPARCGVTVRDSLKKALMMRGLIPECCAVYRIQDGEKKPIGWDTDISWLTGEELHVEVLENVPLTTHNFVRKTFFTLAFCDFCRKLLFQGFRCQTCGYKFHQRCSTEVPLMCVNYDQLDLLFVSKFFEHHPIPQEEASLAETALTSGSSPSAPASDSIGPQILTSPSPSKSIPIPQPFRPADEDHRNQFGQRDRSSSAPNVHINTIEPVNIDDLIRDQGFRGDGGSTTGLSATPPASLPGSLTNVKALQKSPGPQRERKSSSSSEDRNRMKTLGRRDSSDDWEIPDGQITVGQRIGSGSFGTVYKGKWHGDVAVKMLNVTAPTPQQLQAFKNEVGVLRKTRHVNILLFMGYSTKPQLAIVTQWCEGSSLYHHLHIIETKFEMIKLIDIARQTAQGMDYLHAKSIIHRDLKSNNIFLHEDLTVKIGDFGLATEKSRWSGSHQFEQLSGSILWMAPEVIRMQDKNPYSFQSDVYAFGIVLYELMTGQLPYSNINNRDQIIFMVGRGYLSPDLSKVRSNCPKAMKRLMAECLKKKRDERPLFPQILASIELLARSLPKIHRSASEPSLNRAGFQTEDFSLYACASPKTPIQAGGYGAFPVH
To be noted: BRAF(V600E); 1 uM. The gist of the method:
as §1

Assay [6] concerns the target T6, kinases of the scanMAX Kinase assay panel (Homo sapiens, UniProt Q9BYT3).
T6 construct: purchased DiscoverX Co. (contract measurement) scanMAX Kinase assay panel
To be noted: kinase STK33; 1 uM in DMSO. The gist of the method: as §1

For assay [7], the target named is T7, kinases of the scanMAX Kinase assay panel (Homo sapiens, UniProt Q9HCP0).
T7 construct: purchased DiscoverX Co. (contract measurement) scanMAX Kinase assay panel
T7 sequence (Q9HCP0 whole entry): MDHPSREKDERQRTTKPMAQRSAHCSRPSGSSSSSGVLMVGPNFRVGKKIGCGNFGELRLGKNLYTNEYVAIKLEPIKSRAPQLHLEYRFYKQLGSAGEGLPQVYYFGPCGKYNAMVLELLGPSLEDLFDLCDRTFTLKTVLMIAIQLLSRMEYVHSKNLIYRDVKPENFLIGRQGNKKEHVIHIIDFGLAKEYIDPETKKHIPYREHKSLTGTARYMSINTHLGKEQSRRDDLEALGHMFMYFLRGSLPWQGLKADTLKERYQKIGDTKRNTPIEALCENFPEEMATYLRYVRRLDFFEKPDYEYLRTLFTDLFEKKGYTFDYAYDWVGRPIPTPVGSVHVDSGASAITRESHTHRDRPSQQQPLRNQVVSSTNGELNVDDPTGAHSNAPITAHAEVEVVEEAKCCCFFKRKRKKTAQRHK
To be noted: CSNK1G1; 1 uM. The method, boiled down:
as §1

In assay [8] the target is T8, kinases of the scanMAX Kinase assay panel (Homo sapiens, UniProt Q13153).
T8 construct: purchased DiscoverX Co. (contract measurement) scanMAX Kinase assay panel
T8 sequence (Q13153 whole entry): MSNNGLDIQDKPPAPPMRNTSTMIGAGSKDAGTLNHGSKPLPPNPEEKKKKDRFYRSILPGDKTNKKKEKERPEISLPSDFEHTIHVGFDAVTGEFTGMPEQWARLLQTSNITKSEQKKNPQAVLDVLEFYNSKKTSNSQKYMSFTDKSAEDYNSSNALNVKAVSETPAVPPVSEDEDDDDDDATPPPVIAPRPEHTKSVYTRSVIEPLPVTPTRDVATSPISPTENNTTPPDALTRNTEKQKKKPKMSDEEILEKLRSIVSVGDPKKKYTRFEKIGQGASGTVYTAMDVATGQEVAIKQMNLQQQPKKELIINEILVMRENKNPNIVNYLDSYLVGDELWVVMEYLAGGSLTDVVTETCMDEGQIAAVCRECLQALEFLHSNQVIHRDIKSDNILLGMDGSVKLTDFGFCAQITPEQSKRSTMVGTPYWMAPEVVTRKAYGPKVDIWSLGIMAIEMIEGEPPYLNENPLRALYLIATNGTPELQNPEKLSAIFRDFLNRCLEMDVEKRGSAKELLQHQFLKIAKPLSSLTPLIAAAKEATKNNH
The conditions noted are these: PAK1; 1 uM. The method, boiled down: as §1

Assay [9] concerns the target T9, kinases of the scanMAX Kinase assay panel (Homo sapiens, UniProt P54756).
T9 construct: purchased DiscoverX Co. (contract measurement) scanMAX Kinase assay panel
To be noted: EPHA5; 1 uM. The gist of the method:
as §1

Assay [10] addresses T10, kinases of the scanMAX Kinase assay panel (Homo sapiens, UniProt P53778).
T10 construct: purchased DiscoverX Co. (contract measurement) scanMAX Kinase assay panel
T10 sequence (P53778 1-367): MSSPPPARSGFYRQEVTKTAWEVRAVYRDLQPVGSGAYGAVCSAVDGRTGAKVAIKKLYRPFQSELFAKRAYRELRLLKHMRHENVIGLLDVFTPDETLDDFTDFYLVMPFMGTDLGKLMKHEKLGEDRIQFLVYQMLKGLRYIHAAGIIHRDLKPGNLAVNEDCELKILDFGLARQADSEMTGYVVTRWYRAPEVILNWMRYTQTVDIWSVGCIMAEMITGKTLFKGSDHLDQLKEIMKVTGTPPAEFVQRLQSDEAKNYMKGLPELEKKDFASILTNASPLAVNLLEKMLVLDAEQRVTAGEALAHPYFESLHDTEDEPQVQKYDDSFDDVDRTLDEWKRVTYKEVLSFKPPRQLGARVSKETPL
To be noted: p38-gamma; 1 uM. The gist of the method:
as §1

In assay [11] the target is T11, kinases of the scanMAX Kinase assay panel (Homo sapiens, UniProt P49841).
T11 construct: purchased DiscoverX Co. (contract measurement) scanMAX Kinase assay panel
T11 sequence (P49841 whole entry): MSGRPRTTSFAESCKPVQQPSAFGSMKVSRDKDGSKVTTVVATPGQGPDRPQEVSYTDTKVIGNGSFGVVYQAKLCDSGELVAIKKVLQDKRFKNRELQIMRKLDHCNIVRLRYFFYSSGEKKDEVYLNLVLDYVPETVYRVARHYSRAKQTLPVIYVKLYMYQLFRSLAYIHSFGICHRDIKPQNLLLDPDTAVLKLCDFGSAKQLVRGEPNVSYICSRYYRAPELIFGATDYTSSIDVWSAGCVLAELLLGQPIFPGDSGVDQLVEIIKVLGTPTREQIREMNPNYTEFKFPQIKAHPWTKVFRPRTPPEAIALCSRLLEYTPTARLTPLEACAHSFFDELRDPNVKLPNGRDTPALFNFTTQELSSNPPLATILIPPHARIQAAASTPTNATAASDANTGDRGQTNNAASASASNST
To be noted: GSK3B; 1 uM. The method, boiled down:
as §1

In assay [12] the target is T12, kinases of the scanMAX Kinase assay panel (Homo sapiens, UniProt P24723).
T12 construct: purchased DiscoverX Co. (contract measurement) scanMAX Kinase assay panel
T12 sequence (P24723 whole entry): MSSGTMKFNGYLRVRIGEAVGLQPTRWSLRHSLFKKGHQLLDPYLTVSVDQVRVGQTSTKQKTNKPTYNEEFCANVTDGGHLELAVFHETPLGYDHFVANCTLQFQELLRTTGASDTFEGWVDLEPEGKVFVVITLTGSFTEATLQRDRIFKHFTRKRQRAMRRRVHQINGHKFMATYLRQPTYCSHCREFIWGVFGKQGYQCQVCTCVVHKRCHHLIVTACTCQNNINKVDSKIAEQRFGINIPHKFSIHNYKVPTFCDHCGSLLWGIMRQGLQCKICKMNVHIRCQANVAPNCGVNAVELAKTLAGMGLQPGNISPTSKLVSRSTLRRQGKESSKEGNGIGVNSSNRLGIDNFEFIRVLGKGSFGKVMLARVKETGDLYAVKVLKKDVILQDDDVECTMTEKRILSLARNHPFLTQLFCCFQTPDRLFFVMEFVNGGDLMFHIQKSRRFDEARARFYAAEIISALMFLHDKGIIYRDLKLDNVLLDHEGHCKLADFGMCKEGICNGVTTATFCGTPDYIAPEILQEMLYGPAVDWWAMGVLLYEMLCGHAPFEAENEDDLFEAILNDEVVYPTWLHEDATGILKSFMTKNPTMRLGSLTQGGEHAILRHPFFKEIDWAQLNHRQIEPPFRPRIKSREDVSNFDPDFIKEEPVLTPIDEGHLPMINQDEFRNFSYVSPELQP
The conditions noted are these: PRKCH; 1 uM. The method, boiled down: as §1

T1 sequence (O95819 whole entry): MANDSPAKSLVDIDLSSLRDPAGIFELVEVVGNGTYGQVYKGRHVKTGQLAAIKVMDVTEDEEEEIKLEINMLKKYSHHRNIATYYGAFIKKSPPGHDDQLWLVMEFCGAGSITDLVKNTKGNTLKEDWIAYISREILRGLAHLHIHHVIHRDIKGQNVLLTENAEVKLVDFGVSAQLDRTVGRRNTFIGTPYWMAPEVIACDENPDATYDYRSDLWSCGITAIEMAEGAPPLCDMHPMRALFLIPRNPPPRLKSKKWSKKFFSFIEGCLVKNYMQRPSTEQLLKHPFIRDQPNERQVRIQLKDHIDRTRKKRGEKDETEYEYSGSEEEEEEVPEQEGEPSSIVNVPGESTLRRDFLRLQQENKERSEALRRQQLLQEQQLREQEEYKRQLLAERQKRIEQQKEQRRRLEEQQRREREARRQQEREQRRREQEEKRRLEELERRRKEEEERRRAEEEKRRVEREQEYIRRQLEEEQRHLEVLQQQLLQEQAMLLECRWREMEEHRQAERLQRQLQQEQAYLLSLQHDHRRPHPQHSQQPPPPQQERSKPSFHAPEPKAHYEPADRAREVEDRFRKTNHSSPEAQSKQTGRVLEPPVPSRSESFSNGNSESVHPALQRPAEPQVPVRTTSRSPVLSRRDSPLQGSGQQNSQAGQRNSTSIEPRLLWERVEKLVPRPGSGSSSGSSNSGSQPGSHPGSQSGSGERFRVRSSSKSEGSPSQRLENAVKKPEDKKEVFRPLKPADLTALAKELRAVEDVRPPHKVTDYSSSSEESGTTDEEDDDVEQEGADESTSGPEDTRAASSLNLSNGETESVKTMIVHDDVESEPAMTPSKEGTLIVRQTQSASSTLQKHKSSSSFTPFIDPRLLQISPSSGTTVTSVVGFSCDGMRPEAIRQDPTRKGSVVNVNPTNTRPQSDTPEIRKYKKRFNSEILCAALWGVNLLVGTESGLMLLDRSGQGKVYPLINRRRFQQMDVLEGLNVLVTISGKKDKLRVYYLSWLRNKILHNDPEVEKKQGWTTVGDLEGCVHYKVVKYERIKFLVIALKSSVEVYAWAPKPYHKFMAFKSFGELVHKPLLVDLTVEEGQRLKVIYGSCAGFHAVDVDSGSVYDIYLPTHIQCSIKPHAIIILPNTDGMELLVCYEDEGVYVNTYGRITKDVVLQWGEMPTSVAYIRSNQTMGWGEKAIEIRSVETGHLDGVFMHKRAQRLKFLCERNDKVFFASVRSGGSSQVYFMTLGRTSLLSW

As to `CNc1nc(Nc2ccc(C(=O)N3CCOCC3)cc2OC)nc2[nH]cc(C#N)c12` [Example 1, 2-((2-methoxy-4-(morpholine-4-carbonyl)phenyl)amino)-4-(methylamino)-7H-pyrrolo[2,3-d]pyrimidine-5-carbonitrile], the remaining binding at 1 µM in assay [1] is 82%; in [2] it was 92%; in [3], 22%; in assay [4], 66%; in [5] it was 95%; in assay [6], 18%. The remaining binding at 1 µM in [7] stood at 95%; in [8] it was 100%; in [9], 87%; in [10], 70%; in [11], 79%; in [12] it was 93%.
`CC1(Nc2nc(Nc3cnn([C@H]4CCN(C5COC5)C[C@@H]4F)c3Cl)nc3[nH]cc(C#N)c23)CC1` [Example 52, 2-((5-chloro-1-((3S,4S)-3-fluoro-1-(oxetane-3-yl)piperidine-4-yl)-1H-pyrazole-4-yl)amino)((1-methylcyclopropyl)amino)-7H-pyrrolo[2,3-d]pyrimidine-5-carbonitrile]: the remaining binding at 1 µM in assay [1] was 18%; in assay [2], 0.1%; in [3], 0.6%; in assay [4], 0.05%; in assay [5], 100%; in assay [6] it was 4%. In addition, the remaining binding at 1 µM in assay [7] worked out at 6.4%; in [8], 75%; in assay [9], 79%; in assay [10], 77%; in assay [11], 50%; in assay [12], 100%.
On to `CCNc1nc(Nc2ccc(C(=O)N3CCC(N4CCOCC4)CC3)cc2OC)nc2[nH]cc(C(F)(F)F)c12` [Example 104, (4-((4-(ethylamino)-5-(trifluoromethyl)-7H-pyrrolo[2,3-d]pyrimidine-2-yl)amino)-3-methoxyphenyl)(4-morpholinopiperidine-1-yl)methanone], for which the remaining binding at 1 µM in assay [1] came out at 100%; in assay [2] it was 64%; in assay [3] it was 0%; in [4] it was 100%; in assay [5], 100%; in assay [6], 13%. The remaining binding at 1 µM in assay [7] turned out to be 73%; in assay [8], 71%; in assay [9], 100%; in assay [10] it was 89%; in [11], 83%; in assay [12] it was 100%.
